From ChEMBL document CHEMBL5608192, “Discovery and characterization of small-molecule TGR5 ligands with agonistic activity” (Eur J Med Chem, 2024)

Key:
[1] = biological target: T1, G-protein coupled bile acid receptor 1 (Homo sapiens) (UniProt Q8TDU6); test: (§1) Agonist activity at human TGR5 expressed in HEK293-A cells co-transfected with EPAC-based FRET biosensor incubated for 18 hrs by CRE-luciferase reporter gene assay; type: functional, cell-based; conditions: filed as agonist
T1 sequence (whole entry): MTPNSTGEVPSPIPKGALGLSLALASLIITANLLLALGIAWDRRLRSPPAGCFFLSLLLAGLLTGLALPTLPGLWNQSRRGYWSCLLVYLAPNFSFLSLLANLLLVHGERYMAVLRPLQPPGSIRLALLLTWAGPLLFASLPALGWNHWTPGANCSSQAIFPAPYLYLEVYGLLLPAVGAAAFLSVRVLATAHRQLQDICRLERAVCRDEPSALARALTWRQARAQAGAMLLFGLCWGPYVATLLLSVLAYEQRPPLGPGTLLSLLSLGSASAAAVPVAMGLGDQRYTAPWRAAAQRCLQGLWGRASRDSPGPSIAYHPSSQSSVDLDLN

[2] = Effect on cAMP accumulation in non-TGR5 expressing HEK293-A cells transfected with EPAC-based FRET biosensor at 30 uM incubated for 10 mins in presence of IBMX and roflumilast by fluorescence based photometry relative to control; type: functional, Homo sapiens
[3] = Effect on CRE-luciferase activity in TGR5 non-expressing HEK293-A cells transfected with EPAC-based FRET biosensor assessed as fold activation at 30 uM incubated for 18 hrs by spectrophotometric analysis relative to control; type: functional, Homo sapiens
[4] = biological target: T2, G-protein coupled bile acid receptor 1 (Homo sapiens, UniProt Q8TDU6); test: as §1; type: functional, cell-based
T2 sequence (Q8TDU6 whole entry): T1 sequence (whole entry)

[5] = biological target: T2, G-protein coupled bile acid receptor 1; test: Agonist activity at human TGR5 expressed in HEK293-A cells co-transfected with EPAC-based FRET biosensor assessed as increase in cAMP accumulation incubated for 10 mins by spectrophotometry; type: functional, cell-based

Structure (SMILES)	Activity [1]	Activity [2] [%]	fold change (FC) [3]	EC50 [4] [µM]	EC50 [5] [µM]
CC(C)c1ccccc1OCCC(=O)NC[C@@H]1Cc2ccccc21	Dose-Dependent Effect	107.1	0.57		
c1ccc(-n2cccc2CNC2CCCN(C3Cc4ccccc4C3)C2)nc1 (stereo not drawn)		104	1.44		
c1cc(CNC2CC2)cc(-c2cccc3cccnc23)c1		105.3	1.22		
CO[C@@H](CNC(=O)CCc1cc2cc(Br)ccc2s1)Cc1ccccc1	Dose-Dependent Effect	106.4	0.75		
CC1(C)c2ccccc2CCN1CC(=O)NC[C@@H]1Cc2ccccc2O1	Dose-Dependent Effect	103.7	0.82	19	30
Cc1ccc(CCCNC(=O)NCc2cn3c(C)cccc3n2)c(C)c1			0.87		
Cc1cc(S(=O)(=O)NCCn2ccnc2C2CC2)c(Cl)cc1Cl		103.9	0.96		
